{
  "source": "patent US20070265164A1",
  "about": "“Active Substances for Increasing Pathogenic Defense in Plants and Methods for the Detection Thereof” (Bayer Cropscience GmbH, priority 2004, published 2007)",
  "type_in_all_cases": "in vivo",
  "set-up_in_all_cases": "fold induction: dose or concentration left out as unconfirmed",
  "key": {"[1]": {"system": "HI02E21u_s_at, Lipoxygenase (EC 1.13.11.12)", "test": "GEP, barley DNA chip, probe set 1.2", "conditions": "Hordeum vulgare, topical, read-out: Expression value, 1.2 HI02E21u_s_at", "method": "(§1) Barley plants (cv. Baronesse) were grown in compost-filled pots (diameter: 10 cm) for 10 days in a controlled-environment cabinet under defined light, humidity and temperature conditions (white light, 70% atmospheric humidity, 24° C.). At the time of spray application, the seedlings were approximately 15 cm in size. The test substances selected in this example were molecules which differ markedly in their structure and which have a well documented pronounced safener effect, and other molecules which are known from the literature to have an effect on plant stress and pathogen tolerance (Table 1). The substances were prepared as stock solutions in DMSO (dimethyl sulfoxide) at c=10 mg/ml). This was used for preparing dilutions in water supplemented with 0.2% Agrotin (comprises polyvinyl alcohol, silicones, polysaccharides and pH regulators, manufacturer: Bayer CropScience AG, Monheim, Germany), as wetter, to give the application rates shown in the table. The amount of liquid for the spray application was 800 μl per pot, corresponding to 800 l/ha. For each 800 μl of spray mixture, 16 μl of EC premix: diacetone alcohol=1:6 were additionally added as formulation auxiliaries. The substances listed in Table 1 were applied to the leaves by means of a pneumatic spray pistol. Each substance was sprayed as 2 dosages, and all experiments were carried out as replicates (2 pots per substance). Sprayings with blank formulation without active ingredient were carried out as controls. After 6 hours, the leaves were harvested, frozen in liquid nitrogen and stored at −80° C. until further use. The labeled RNA probes for the DNA chip hybridization were prepared as described in the protocols (Expression Analysis, Technical Manual) from Affymetrix (Affymetrix Inc., 3380 Central Expressway, Santa Clara, Calif., USA). First, total RNA was isolated from in each case 500 mg of the harvested leaves. In each case 10 μg of total RNA was used for the first-strand and second-strand cDNA synthesis. The cDNA was amplified with T7 polymerase and simultaneously labeled with biotin-UTP. In each case, 20 μg of this biotinylated cDNA was employed for the hybridization of the barley genome array (Gene Chip Barleyl, order No.: 511012) from Affymetrix. This DNA microarray comprises DNA sequences of 22 840 genes which are composed of a total of 400 000 EST sequences. Thereafter, the DNA microarrays were washed in the Affymetrix Fluidics Station, stained with streptavidin/phycoerythrin (Molecular Probes, P/N S-866) and scanned with the matching Agilent Laser Scanner (Agilent Gene Array Scanner). The fluorescent data obtained were analyzed with the software Microarray Suite 5 from Affymetrix. After the quality had been checked, all DNA chip analyses were stored in a database. To determine the relative expression values for genes (induction factors, repression factors), test and control chips were compared with each other, and the scoring function set by the Affymetrix software was used as the basis. The 2 biological replications of one experiment were compared in each case with 2 control chips (blank formulation), and the 4 expression values obtained for each gene were used for calculating the median. These medians are shown in the results tables as induction factors. Similarity comparisons of expression profiles from different experiments and cluster analyses were carried out using the software GeneMaths 1.5 from Applied Maths (Applied Maths, Keistraat 120, 9830 Sint-Martens-Latem, Belgium).\n(§2) Gene groups from specific metabolic pathways and signal transduction chains were put together by key word search in the annotations, of the genes, which were also provided by Affymetrix, and by Blast analyses (homology comparisons) of the DNA target sequences, i.e. of the positive sequence (identified on the basis of a modified expression profile) identified on the DNA chip, using gene sequences from other organisms, preferably plant organisms, with characterized functions. […]"}, "[2]": {"system": "Contig5146_at, Probable 12-oxophytodienoate reductase (EC 1.3.1.42)", "test": "GEP, barley DNA chip, probe set 1.4", "conditions": "Hordeum vulgare, topical, read-out: Expression value, 1.4 Contig5146_at", "method": "as §1, §2"}, "[3]": {"system": "HV_Ceb0020D05r2_s_at, Allene oxide cyclase", "test": "GEP, barley DNA chip, probe set 1.6", "conditions": "Hordeum vulgare, topical, read-out: Expression value, 1.6 HV_Ceb0020 D05r2_s_at", "method": "as §1, §2"}, "[4]": {"system": "Contig6194_a_at, 12-oxophytodienoic acid reductase", "test": "GEP, barley DNA chip, probe set 1.7", "conditions": "Hordeum vulgare, topical, read-out: Expression value, 1.7 Contig6194_a_at", "method": "as §1, §2"}, "[5]": {"system": "Contig9556_at, 12-oxophytodienoate reductase 3", "test": "GEP, barley DNA chip, probe set 1.8", "conditions": "Hordeum vulgare, topical, read-out: Expression value, 1.8 Contig9556_at", "method": "as §1, §2"}, "[6]": {"system": "Contig12574_at, Putative lipoxygenase", "test": "GEP, barley DNA chip, probe set 1.11", "conditions": "Hordeum vulgare, read-out: Expression value, 1.11 Contig12574_at", "method": "as §1, §2"}, "[7]": {"system": "Contig6611_at, Similar to lipases", "test": "GEP, barley DNA chip, probe set 1.12", "conditions": "Hordeum vulgare, topical, read-out: Expression value, 1.12 Contig6611_at", "method": "as §1, §2"}, "[8]": {"system": "Contig2305_at, Methyljasmonate inducible lipoxygenase", "test": "GEP, barley DNA chip, probe set 1.14", "conditions": "Hordeum vulgare, topical, read-out: Expression value, 1.14 Contig2305_at", "method": "as §1, §2"}, "[9]": {"system": "Contig1737_at, Probable lipoxygenase", "test": "GEP, barley DNA chip, probe set 1.15", "conditions": "Hordeum vulgare, topical, read-out: Expression value, 1.15 Contig1737_at", "method": "as §1, §2"}, "[10]": {"system": "Contig13413_at, Similar to lipases", "test": "GEP, barley DNA chip, probe set 1.17", "conditions": "Hordeum vulgare, topical, read-out: Expression value, 1.17 Contig13413_at", "method": "as §1, §2"}, "[11]": {"system": "Contig2326_s_at, 12-oxophytodienoic acid reductase", "test": "GEP, barley DNA chip, probe set 1.18", "conditions": "Hordeum vulgare, topical, read-out: Expression value, 1.18 Contig2326_s_at", "method": "as §1, §2"}, "[12]": {"system": "Contig88_x_at, Putative proteinase inhibitor", "test": "GEP, barley DNA chip, probe set 2.3", "conditions": "Hordeum vulgare, topical, read-out: Expression value, 2.3 Contig88_x_at", "method": "as §1, §2"}, "[13]": {"system": "Contig2118_at, Peroxidase (EC 1.11.1.7), pathogen-induced", "test": "GEP, barley DNA chip, probe set 4.1", "conditions": "Hordeum vulgare, topical, read-out: Expression value, 4.1 Contig2118_at", "method": "as §1, §2"}, "[14]": {"conditions": "barley leaves 6 h after spray application, rates of Table 1 (S7 500), median induction factor vs control"}},
  "data": [
    {"compound": "CCOC(=O)C1=NOC(c2ccccc2)(c2ccccc2)C1", "note": "[S3, Isoxadifen-ethyl]", "values": [
      {"measurement": "fold induction at 150 g/ha", "setting": "[1]; 6 h", "value": 40.8},
      {"measurement": "fold induction at 150 g/ha", "setting": "[2]; 6 h", "value": 4.5},
      {"measurement": "fold induction at 150 g/ha", "setting": "[3]; 6 h", "value": 3.68},
      {"measurement": "fold induction at 150 g/ha", "setting": "[4]; 6 h", "value": 3.25},
      {"measurement": "fold induction at 150 g/ha", "setting": "[5]; 6 h", "value": 3.03},
      {"measurement": "fold induction at 150 g/ha", "setting": "[6]; 6 h", "value": 2.81},
      {"measurement": "fold induction at 150 g/ha", "setting": "[7]; 6 h", "value": 2.41},
      {"measurement": "fold induction at 150 g/ha", "setting": "[8]; 6 h", "value": 2.14},
      {"measurement": "fold induction at 150 g/ha", "setting": "[9]; 6 h", "value": 1},
      {"measurement": "fold induction at 150 g/ha", "setting": "[10]; 6 h", "value": 1},
      {"measurement": "fold induction at 150 g/ha", "setting": "[11]; 6 h", "value": 1},
      {"measurement": "fold induction at 150 g/ha", "setting": "[12]; 6 h", "value": 4.53},
      {"measurement": "fold induction at 150 g/ha", "setting": "[13]; 6 h", "value": 4.86}
    ]},
    {"compound": "NC(=O)c1ccc(C(F)(F)F)nc1O", "note": "[S6]", "values": [
      {"measurement": "fold induction", "setting": "[1]; [14]", "value": 1},
      {"measurement": "fold induction", "setting": "[2]; [14]", "value": 6.77},
      {"measurement": "fold induction", "setting": "[3]; [14]", "value": 1},
      {"measurement": "fold induction", "setting": "[4]; [14]", "value": 3.16},
      {"measurement": "fold induction", "setting": "[5]; [14]", "value": 1},
      {"measurement": "fold induction", "setting": "[6]; [14]", "value": 1},
      {"measurement": "fold induction", "setting": "[7]; [14]", "value": 1},
      {"measurement": "fold induction", "setting": "[8]; [14]", "value": 1},
      {"measurement": "fold induction", "setting": "[9]; [14]", "value": 1},
      {"measurement": "fold induction", "setting": "[10]; [14]", "value": 1},
      {"measurement": "fold induction", "setting": "[11]; [14]", "value": 1},
      {"measurement": "fold induction", "setting": "[12]; [14]", "value": 1},
      {"measurement": "fold induction", "setting": "[13]; [14]", "value": 2.2}
    ]}
  ]
}
